Results as given in patent publication US20060247227A1, “Substituted piperidines as histamine h3 receptor ligands” (priority 2003, published 2006).
Structures can show the parent of a compound that is named as a salt.

Target: T1, histamine H3 receptor (Homo sapiens, UniProt Q9Y5N1)
T1 construct: expressed in transfected cells; host or cells: CHO K1 cells carrying pSwitch, transfected with pGeneH3 and induced with mifepristone; clone 3H3; membranes
Assay: Histamine H3 functional antagonist assay ([35S]GTPγS, SPA, membranes of CHO K1 cells expressing the receptor)
Assay type: biochemical
Details: histamine-stimulated GTPγS binding, membranes with human H3
Source text: A membrane preparation containing histamine H3 receptors may be prepared in accordance with the following procedures:
(i) Generation of Histamine H3 Cell Line
DNA encoding the human histamine H3 gene (Huvar, A. et al. (1999) Mol. Pharmacol. 55(6), 1101-1107) was cloned into a holding vector, pCDNA3.1 TOPO (InVitrogen) and its cDNA was isolated from this vector by restriction digestion of plasmid DNA with the enzymes BamH1 and Not-1 and ligated into the inducible expression vector pGene (InVitrogen) digested with the same enzymes. The GeneSwitch™ system (a system where in transgene expression is switched off in the absence of an inducer and switched on in the presence of an inducer) was performed as described in U.S. Pat. Nos. 5,364,791; 5,874,534; and 5,935,934. Ligated DNA was transformed into competent DH5α E. coli host bacterial cells and plated onto Luria Broth (LB) agar containing Zeocin™ (an antibiotic which allows the selection of cells expressing the sh ble gene which is present on pGene and pSwitch) at 50 μg ml^−1. Colonies containing the re-ligated plasmid were identified by restriction analysis. DNA for transfection into mammalian cells was prepared from 250 ml cultures of the host bacterium containing the pGeneH3 plasmid and isolated using a DNA preparation kit (Qiagen Midi-Prep) as per manufacturers guidelines (Qiagen).
CHO K1 cells previously transfected with the pSwitch regulatory plasmid (InVitrogen) were seeded at 2×10e6cells per T75 flask in Complete Medium, containing Hams F12 (GIBCOBRL, Life Technologies) medium supplemented with 10% v/v dialysed foetal bovine serum, L-glutamine, and hygromycin ([…]), 24 hours prior to use. Plasmid DNA was transfected into the cells using Lipofectamine plus according to the manufacturers guidelines (InVitrogen). 48 hours post transfection cells were placed into complete medium supplemented with […] Zeocin™.
10-14 days post selection 10 nM Mifepristone (InVitrogen), was added to the culture medium to induce the expression of the receptor. 18 hours post induction cells were detached from the flask using ethylenediamine tetra-acetic acid (EDTA; 1:5000; InVitrogen), following several washes with phosphate buffered saline pH 7.4and resuspended in Sorting Medium containing Minimum Essential Medium (MEM), without phenol red, and supplemented with Earles salts and 3% Foetal Clone II (Hyclone). Approximately 1×10e7 cells were examined for receptor expression by staining with a rabbit polyclonal antibody, 4a, raised against the N-terminal domain of the histamine H3 receptor, incubated on ice for 60 minutes, followed by two washes in sorting medium. Receptor bound antibody was detected by incubation of the cells for 60 minutes on ice with a goat anti rabbit antibody, conjugated with Alexa 488 fluorescence marker (Molecular Probes). Following two further washes with Sorting Medium, cells were filtered through a 50 μm Filcon™ (BD Biosciences) and then analysed on a FACS Vantage SE Flow Cytometer fitted with an Automatic Cell Deposition Unit. Control cells were non-induced cells treated in a similar manner. Positively stained cells were sorted as single cells into 96-well plates, containing Complete Medium containing 500 μg ml^−1 Zeocin™ and allowed to expand before reanalysis for receptor expression via antibody and ligand binding studies. One clone, 3H3, was selected for membrane preparation.
(ii) Membrane Preparation from Cultured Cells
All steps of the protocol are carried out at 4° C. and with pre-cooled reagents. The cell pellet is resuspended in 10 volumes of buffer A2 containing 50 mM N-2-hydroxyethylpiperazine-N′-2-ethanesulfonic acid (HEPES) (pH 7.40) supplemented with […] leupeptin (acetyl-leucyl-leucyl-arginal; Sigma L2884), 25 μg/ml bacitracin (Sigma B0125), 1 mM ethylenediamine tetra-acetic acid (EDTA), 1 mM phenylmethylsulfonyl fluoride (PMSF) and 2×10e-6M pepstain A (Sigma). […]

T1 sequence (Q9Y5N1 whole entry): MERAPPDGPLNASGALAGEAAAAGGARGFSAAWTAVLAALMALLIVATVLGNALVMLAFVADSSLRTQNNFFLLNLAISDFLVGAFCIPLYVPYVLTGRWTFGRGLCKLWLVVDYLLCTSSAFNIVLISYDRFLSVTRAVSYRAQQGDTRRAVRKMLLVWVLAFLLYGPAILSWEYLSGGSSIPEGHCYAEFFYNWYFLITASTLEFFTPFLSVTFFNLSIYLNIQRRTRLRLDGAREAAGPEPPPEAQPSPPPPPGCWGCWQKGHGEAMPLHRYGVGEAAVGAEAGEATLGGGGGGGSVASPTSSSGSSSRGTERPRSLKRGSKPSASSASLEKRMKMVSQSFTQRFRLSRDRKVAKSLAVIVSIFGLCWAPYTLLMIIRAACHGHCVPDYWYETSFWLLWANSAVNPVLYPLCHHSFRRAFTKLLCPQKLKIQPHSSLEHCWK

SMILES | Ki [nM]
FC(F)(F)c1ccc(N2CCC(OC3CCN(C4CCC4)CC3)CC2)nc1 [Example E86, 2-{4-[(1-Cyclobutyl-4-piperidinyl)oxy]-1-piperidinyl}-5-(trifluoromethyl)pyridine hydrochloride] | ≤ 1
CN(C)C(=O)c1ccc(N2CCC(OC3CCN(C4CCC4)CC3)CC2)cn1 [Example E31, 5-{4-[(1-Cyclobutyl-4-piperidinyl)oxy]-1-piperidinyl}-N,N-dimethyl-2-pyridinecarboxamide hydrochloride] | ≤ 1
CC(C)N1CCC(OC2CCN(c3ccc(C(=O)N(C)C)nc3)CC2)CC1 [Example E32] | ≤ 1
O=C(NC1CCC1)c1ccc(N2CCC(OC3CCN(C4CCC4)CC3)CC2)cn1 [Example E104, N-Cyclobutyl-5-{4-[(1-cyclobutyl-4-piperidinyl)oxy]-1-piperidinyl}-2-pyridinecarboxamide] | ≤ 1
O=C(c1ccc(N2CCC(OC3CCN(C4CCC4)CC3)CC2)nc1)N1CCOCC1 [Example E57] | ≤ 1
CCNC(=O)c1cnc(N2CCC(OC3CCN(C4CCC4)CC3)CC2)cn1 [Example E71] | ≤ 1
CNC(=O)c1cnc(N2CCC(OC3CCN(C4CCC4)CC3)CC2)cn1 [Example E70, 5-(4-[(1-Cyclobutyl-4-piperidinyl)oxy]-1-piperidinyl}-N-methyl-2-pyrazinecarboxamide butanedioate] | ≤ 1
CC(C)N1CCC(OC2CCN(c3ccc(C(=O)N4CCCCC4)cc3)CC2)CC1 [Example E8] | ≤ 1
CC[C@@H](C)N1CCC(OC2CCN(c3ccc(C(C)=O)cc3)CC2)CC1 [Example E102] | ≤ 1
CC(C)N1CCC(OC2CCN(c3ccc(C(=O)NCCCCl)nc3)CC2)CC1 [Example E108, N (3-Chloropropyl)-5-(4-{[1-(1-methylethyl)-4-piperidinyl]oxy}-1-piperidinyl)-2-pyridinecarboxamide hydrochloride] | ≤ 1
O=C(c1cccc(N2CCC(OC3CCN(C4CCC4)CC3)CC2)n1)N1CCCC1 [Example E64] | < 10
CNC(=O)c1ccc(N2CCC(OC3CCN(C4CCC4)CC3)CC2)cn1 [Example E38, 5-{4-[(1-Cyclobutyl-4-piperidinyl)oxy]-1-piperidinyl}-N-methyl-2-pyridinecarboxamide hydrochloride] | < 0.316
CNC(=O)c1cccc(N2CCC(OC3CCN(C4CCC4)CC3)CC2)n1 [Example E62] | ≤ 1
Cc1noc(-c2ccc(N3CCC(OC4CCN(C(C)C)CC4)CC3)cc2F)n1 [Example E113, 1-[3-Fluoro-4-(3-methyl-1,2,4-oxadiazol-5-yl)phenyl]-4-{[1-(1-methylethyl)-4-piperidinyl]oxy}piperidine hydrochloride] | ≤ 1
CN(C)C(=O)c1ccc(N2CCC(OC3CCN(C4CCC4)CC3)CC2)nc1 [Example E55] | ≤ 1
CC(C)N1CCC(OC2CCN(c3ccc(C(=O)N4CCCC4)nc3)CC2)CC1 [Example E33] | ≤ 1
CC(C)N1CCC(OC2CCN(c3ccc(C(=O)OC(C)(C)C)nc3)CC2)CC1 [Example E95, 1,1-Dimethylethyl 5-(4-{[1-(1-methylethyl)-4-piperidinyl]oxy}-1-piperidinyl)-2-pyridinecarboxylate] | ≤ 1
Cc1cc(-c2ccc(N3CCC(OC4CCN(C(C)C)CC4)CC3)cc2)on1 [Example E23] | ≤ 1
CCCNC(=O)c1cnc(N2CCC(OC3CCN(C(C)C)CC3)CC2)cn1 [Example E77] | ≤ 1
O=C(c1cc(N2CCC(OC3CCN(C4CCC4)CC3)CC2)ccn1)N1CCCCC1 [Example E69] | < 10
CC(C)N1CCC(OC2CCN(c3ccc(C(=O)NC4CCCC4)nc3)CC2)CC1 [Example E45] | ≤ 1
CC(C)N1CCC(OC2CCN(c3ccc(C(F)(F)F)nc3)CC2)CC1 [Example E81, 5-{4-[(1-Methylethyl-4-piperidinyl)oxy]-1-piperidinyl}-2-(trifluoromethyl)pyridine hydrochloride] | ≤ 1
CC(=O)c1ccc(N2CCC(OC3CCN(C(C)C)CC3)CC2)cc1 [Example E97, 1-[4-(4-{[1-(Methylethyl)-4-piperidinyl]oxy}-1-piperidinyl)phenyl]ethanone] | ≤ 1
CC(=O)Nc1ccc(N2CCC(OC3CCN(C4CCC4)CC3)CC2)cc1F [Example E98, N-(4-{4-[(1-Cyclobutyl-4-piperidinyl)oxy]-1-piperidinyl}-2-fluorophenyl)acetamide hydrochloride] | ≤ 1
CC(C)N1CCC(OC2CCN(c3ccc(C#N)cc3)CC2)CC1 [Example E4, 4-(4-{[1-(1-Methylethyl)-4-piperidinyl]oxy}-1-piperidinyl)benzonitrile hydrochloride] | ≤ 1
CC[C@H](C)N1CCC(OC2CCN(c3ccc(C(C)=O)cc3)CC2)CC1 [Example E101] | ≤ 1

Second part, the compound after the results:

Ki [nM] | SMILES
≤ 1 | CNC(=O)c1ccc(N2CCC(OC3CCN(C4CCC4)CC3)CC2)cc1 [Example E6, 4-[4-[(1-Cyclobutyl-4-piperidinyl)oxy]-1-piperidinyl)-N-methylbenzamide hydrochloride]
≤ 1 | Cc1cc(-c2ccc(N3CCC(OC4CCN(C5CCC5)CC4)CC3)cc2)on1 [Example E24]
< 10 | CC(C)N1CCC(OC2CCN(c3ccc(C(F)(F)F)cn3)CC2)CC1 [Example E87, 2-(4-{[1-(1-Methylethyl)-4-piperidinyl]oxy}-1-piperidinyl)-5-(trifluoromethyl)pyridine hydrochloride]
≤ 1 | CC(C)N1CCC(OC2CCN(c3ccc(C(=O)N4CCOCC4)nc3)CC2)CC1 [Example E36]
≤ 1 | N#Cc1ccc(N2CCC(OC3CCN(C4CCC4)CC3)CC2)nc1 [Example E2, 6-{4-[(1-Cyclobutyl-4-piperidinyl)oxy]-1-piperidinyl}-3-pyridinecarbonitrile hydrochloride]
< 10 | CNC(=O)c1ccc(N2CCC(OC3CCN(C(C)C)CC3)CC2)cc1 [Example E14]
≤ 1 | O=C(c1ccc(N2CCC(OC3CCN(C4CCC4)CC3)CC2)cn1)N1CCCCC1 [Example E35]
≤ 1 | Cc1noc(-c2ccc(N3CCC(OC4CCN(C5CCC5)CC4)CC3)cc2)n1 [Example E28]
≤ 1 | CC(=O)c1ccc(N2CCC(OC3CCN(C4CCC4)CC3)CC2)c(F)c1 [Example E109, 1-(4-{4-[(1-Cyclobutyl-4-piperidinyl)oxy]-1-piperidinyl}-3-fluorophenyl)ethanone]
≤ 1 | O=C(c1ccc(N2CCC(OC3CCN(C4CCC4)CC3)CC2)cc1)N1CCCC1 [Example E11]
< 10 | CC(C)N1CCC(OC2CCN(c3ccc(C(=O)N4CCOCC4)cn3)CC2)CC1 [Example E53]
≤ 1 | CCNC(=O)c1ccc(N2CCC(OC3CCN(C(C)C)CC3)CC2)cn1 [Example E39]
≤ 1 | Cc1noc(-c2ccc(N3CCC(OC4CCN(C5CCC5)CC4)CC3)cc2F)n1 [Example E110, 1-Cyclobutyl-4-({1-[3-fluoro-4-(3-methyl-1,2,4-oxadiazol-5-yl)phenyl]-4-piperidinyl}oxy)piperidine]
< 0.316 | FC(F)(F)c1ccc(N2CCC(OC3CCN(C4CCC4)CC3)CC2)nn1 [Example E82, 3-{4-[(1-Cyclobutyl-4-piperidinyl)oxy]-1-piperidinyl}-6-(trifluoromethyl)pyridazine hydrochloride]
≤ 1 | Cc1nc(-c2ccc(N3CCC(OC4CCN(C5CCC5)CC4)CC3)cc2)no1 [Example E25]
≤ 1 | c1ccc(-c2nnc(-c3ccc(N4CCC(OC5CCN(C6CCC6)CC5)CC4)cc3)o2)cc1 [Example E27]
≤ 1 | CC(=O)c1ccc(N2CCC(OC3CCN(C4CCC4)CC3)CC2)cn1 [Example E111, 1-(5-{4-[(1-Cyclobutyl-4-piperidinyl)oxy]-1-piperidinyl}-2-pyridinyl)ethanone]
